Results: ChEMBL document CHEMBL1649431, “Molecular mechanisms of macrolide resistance in clinical isolates of Mycoplasma pneumoniae from China” (2009)
In brackets after ≈: the same amount, converted by molar mass.

Assays:
[1] = system: Mycoplasmoides pneumoniae; assay: Antimicrobial activity against Mycoplasma pneumoniae clinical isolate harboring point mutations in 23S rRNA at positions 2063 and 2064 isolated from human respiratory tract by microdilution method; format: functional
[2] = system: Mycoplasmoides pneumoniae; assay: Antimicrobial activity against Mycoplasma pneumoniae FH by microdilution method; format: functional

Row | SMILES | MIC [1] [µg/mL] | MIC50 [1] [µg/mL] | MIC90 [1] [µg/mL] | MIC [2] [µg/mL]
1 | CO[C@@H]1[C@@H](O[C@@H]2O[C@H](C)[C@@H](O[C@H]3C[C@@](C)(O)[C@@H](OC(=O)CC(C)C)[C@H](C)O3)[C@H](N(C)C)[C@H]2O)[C@@H](CC=O)C[C@@H](C)[C@@H](O)/C=C/C=C/C[C@@H](C)OC(=O)C[C@H]1OC(C)=O [JOSAMYCIN] | 0.01 (≈ 0.0121 µM) | 32 (≈ 38.6 µM) | 64 (≈ 77.3 µM) | 0.1 (≈ 0.121 µM)
2 | CC[C@H]1OC(=O)[C@H](C)[C@@H](O[C@H]2C[C@@](C)(OC)[C@@H](O)[C@H](C)O2)[C@H](C)[C@@H](O[C@@H]2O[C@H](C)C[C@H](N(C)C)[C@H]2O)[C@](C)(O)C[C@@H](C)C(=O)[C@H](C)[C@@H](O)[C@]1(C)O [ERYTHROMYCIN] | 0.01 (≈ 0.0136 µM) | 128 (≈ 174 µM) | 512 (≈ 698 µM) | 0.01 (≈ 0.0136 µM)
3 | CC[C@H]1OC(=O)[C@H](C)[C@@H](O[C@H]2C[C@@](C)(OC)[C@@H](O)[C@H](C)O2)[C@H](C)[C@@H](O[C@@H]2O[C@H](C)C[C@H](N(C)C)[C@H]2O)[C@](C)(O)C[C@@H](C)CN(C)[C@H](C)[C@@H](O)[C@]1(C)O [AZITHROMYCIN] | 0.001 (≈ 0.00134 µM) | 128 (≈ 171 µM) | 256 (≈ 342 µM) | 0.001 (≈ 0.00134 µM)
